One compound from paper PMC3575848 (Nucleic Acids Research, 2012) can be followed below.

The structures appear in SMILES notation.

Holding throughout (type): binding
In assay [1] the target is T1, HsaDRS2 (Homo sapiens, UniProt Q6PI48).
T1 sequence (Q6PI48 41-645): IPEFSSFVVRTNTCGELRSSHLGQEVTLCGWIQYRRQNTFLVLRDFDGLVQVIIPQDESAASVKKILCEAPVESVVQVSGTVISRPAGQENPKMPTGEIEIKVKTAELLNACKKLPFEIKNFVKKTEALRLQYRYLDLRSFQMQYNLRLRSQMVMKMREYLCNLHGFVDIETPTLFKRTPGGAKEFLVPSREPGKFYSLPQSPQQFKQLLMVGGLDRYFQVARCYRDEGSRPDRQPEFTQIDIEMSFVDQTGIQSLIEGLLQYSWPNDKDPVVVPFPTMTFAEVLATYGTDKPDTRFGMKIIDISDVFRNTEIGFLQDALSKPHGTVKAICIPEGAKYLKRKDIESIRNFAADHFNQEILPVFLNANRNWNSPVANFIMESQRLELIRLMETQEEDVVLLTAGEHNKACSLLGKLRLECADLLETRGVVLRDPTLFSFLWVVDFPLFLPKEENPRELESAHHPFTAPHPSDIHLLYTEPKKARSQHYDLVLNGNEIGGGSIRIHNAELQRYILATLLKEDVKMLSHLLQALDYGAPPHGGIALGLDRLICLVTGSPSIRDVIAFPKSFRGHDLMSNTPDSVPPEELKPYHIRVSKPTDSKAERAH
As to the kind of experiment: thermal shift by dynamic light scattering and differential scanning fluorimetry. The note with it: protein 3 mg/ml, temperature gradient.

The target in assay [2] is T2, EcoDRS (Escherichia coli, UniProt P21889). As to the kind of experiment: isothermal titration calorimetry. For orientation: In ITC the heat of successive injections is recorded.
T2 sequence (P21889 whole entry): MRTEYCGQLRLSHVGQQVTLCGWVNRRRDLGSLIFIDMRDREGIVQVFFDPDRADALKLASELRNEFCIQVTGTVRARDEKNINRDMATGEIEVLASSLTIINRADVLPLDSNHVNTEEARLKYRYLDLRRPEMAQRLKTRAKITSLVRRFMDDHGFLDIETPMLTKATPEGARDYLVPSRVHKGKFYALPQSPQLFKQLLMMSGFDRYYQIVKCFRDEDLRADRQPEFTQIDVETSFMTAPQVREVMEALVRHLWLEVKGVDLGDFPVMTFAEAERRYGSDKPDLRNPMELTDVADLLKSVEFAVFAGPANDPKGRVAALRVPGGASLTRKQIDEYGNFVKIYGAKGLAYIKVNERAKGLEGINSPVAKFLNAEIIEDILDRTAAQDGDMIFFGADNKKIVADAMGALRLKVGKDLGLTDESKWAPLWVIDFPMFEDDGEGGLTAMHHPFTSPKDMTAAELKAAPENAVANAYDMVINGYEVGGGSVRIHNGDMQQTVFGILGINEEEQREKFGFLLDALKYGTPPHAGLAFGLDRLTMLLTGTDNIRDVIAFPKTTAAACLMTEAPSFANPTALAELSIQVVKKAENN
For assay [3], the target named is T2, EcoDRS. As to the kind of experiment: thermal shift by dynamic light scattering. The note with it: protein 3 mg/ml, temperature gradient.
Assay [4] deals with T1, HsaDRS2. As to the kind of experiment: isothermal titration calorimetry.

Broadly, the Kd is the constant that tells how readily two partners part at equilibrium. Read a low Kd as a tighter complex.

As for `Nc1ncnc2c1ncn2[C@@H]1O[C@H](COS(=O)(=O)NC(=O)[C@@H](N)CC(=O)O)[C@@H](O)[C@H]1O` [Asp–AMS, 5′-O-[N-(L-aspartyl)sulfamoyl] adenosine], the Tm entry on HsaDRS2 [1] was “Significant stabilization was observed in the presence of Asp–AMS”; at EcoDRS [3], “only Asp–AMS (dashed grey line) influences the thermostability of the two enzymes positively”. Besides, the Kd at EcoDRS [2] worked out at 2.95 ± 1.34 nM; on HsaDRS2 [4] it was 17.5 ± 12 nM.
